# Source: ChEMBL document CHEMBL3217456 (Medchemcomm, 2014)
# The source made the active and inactive calls. No cut-off for these calls is given here.
# Key:
# Histamine H4 receptor [1] = molecular target: T1, Histamine H4 receptor (Homo sapiens, UniProt Q9H3N8); assay: (§1) Antagonist activity at human recombinant histamine H4 receptor-RGS19 fusion protein expressed in Sf9 cells coexpressing Galphai2,Gbeta1gamma2 assessed as inhibition of histamine-induced […] hydrolysis preincubated for 2 mins before [gamma32P]GTP addition measured after 20 mins by steady-state GTPase activity assay; format: functional
# T1 sequence (Q9H3N8 whole entry, the tested form may be a part): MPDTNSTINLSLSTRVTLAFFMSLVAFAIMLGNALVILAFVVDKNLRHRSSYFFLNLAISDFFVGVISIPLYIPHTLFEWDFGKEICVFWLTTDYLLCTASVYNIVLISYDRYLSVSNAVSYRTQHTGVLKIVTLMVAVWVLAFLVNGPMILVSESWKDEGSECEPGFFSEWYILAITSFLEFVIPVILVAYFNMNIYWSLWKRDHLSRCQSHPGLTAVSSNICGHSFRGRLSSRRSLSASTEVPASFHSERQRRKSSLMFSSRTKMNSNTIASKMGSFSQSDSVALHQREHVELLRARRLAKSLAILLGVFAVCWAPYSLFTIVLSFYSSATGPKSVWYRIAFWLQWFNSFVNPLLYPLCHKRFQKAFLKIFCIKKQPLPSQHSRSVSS
# Histamine H3 receptor [2] = molecular target: T2, Histamine H3 receptor (Homo sapiens, UniProt Q9Y5N1); assay: as §1, with “H3 receptor” for “H4 receptor-RGS19 fusion protein”, “Galphai2,Gbeta1gamma2 and RGS4” for “Galphai2,Gbeta1gamma2”; format: functional
# T2 sequence (Q9Y5N1 whole entry, the tested form may be a part): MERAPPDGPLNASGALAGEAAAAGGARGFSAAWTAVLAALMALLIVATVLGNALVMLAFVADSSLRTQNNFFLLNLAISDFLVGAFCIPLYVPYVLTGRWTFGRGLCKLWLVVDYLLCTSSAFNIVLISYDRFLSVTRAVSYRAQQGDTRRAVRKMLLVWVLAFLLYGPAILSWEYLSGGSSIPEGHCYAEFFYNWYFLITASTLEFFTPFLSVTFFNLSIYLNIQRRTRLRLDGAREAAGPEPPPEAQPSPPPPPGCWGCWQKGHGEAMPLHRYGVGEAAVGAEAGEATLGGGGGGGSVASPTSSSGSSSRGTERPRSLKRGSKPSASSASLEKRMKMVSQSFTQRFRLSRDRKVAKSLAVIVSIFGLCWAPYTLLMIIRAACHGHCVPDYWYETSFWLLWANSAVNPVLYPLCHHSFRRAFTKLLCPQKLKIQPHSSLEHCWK
# [3] = molecular target: Histamine H1 receptor (Homo sapiens) (UniProt P35367); assay: Antagonist activity at human recombinant histamine H1 receptor expressed in Sf9 cells coexpressing RGS4 assessed as inhibition of histamine-induced […] hydrolysis preincubated for 2 mins before [gamma32P]GTP addition measured after 20 mins by steady-state GTPase activity assay; format: functional
# Chain of Histamine H1 receptor (Homo sapiens) (P35367 whole entry, the tested form may be a part): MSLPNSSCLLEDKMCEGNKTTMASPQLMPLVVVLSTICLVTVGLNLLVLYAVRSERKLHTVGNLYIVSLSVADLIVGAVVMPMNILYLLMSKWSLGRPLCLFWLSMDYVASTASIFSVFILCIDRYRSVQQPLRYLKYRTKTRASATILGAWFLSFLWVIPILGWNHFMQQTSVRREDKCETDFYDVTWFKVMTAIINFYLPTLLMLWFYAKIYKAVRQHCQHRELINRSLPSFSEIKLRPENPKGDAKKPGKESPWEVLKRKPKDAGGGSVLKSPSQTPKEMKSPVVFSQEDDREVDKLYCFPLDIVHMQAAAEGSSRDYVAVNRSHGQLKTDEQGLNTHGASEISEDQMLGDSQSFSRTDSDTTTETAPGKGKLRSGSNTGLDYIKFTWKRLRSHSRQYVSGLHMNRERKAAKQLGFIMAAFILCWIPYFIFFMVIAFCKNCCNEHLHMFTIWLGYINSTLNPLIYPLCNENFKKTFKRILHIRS
# Histamine H2 receptor [4] = molecular target: T3, Histamine H2 receptor (Homo sapiens, UniProt P25021); assay: Intrinsic activity at human recombinant histamine H2 receptor-Gsalphas fusion protein expressed in Sf9 cells preincubated for 2 mins before [gamma32P]GTP addition measured after 20 mins by steady-state GTPase activity assay relative to histamine
# T3 sequence (P25021 whole entry, the tested form may be a part): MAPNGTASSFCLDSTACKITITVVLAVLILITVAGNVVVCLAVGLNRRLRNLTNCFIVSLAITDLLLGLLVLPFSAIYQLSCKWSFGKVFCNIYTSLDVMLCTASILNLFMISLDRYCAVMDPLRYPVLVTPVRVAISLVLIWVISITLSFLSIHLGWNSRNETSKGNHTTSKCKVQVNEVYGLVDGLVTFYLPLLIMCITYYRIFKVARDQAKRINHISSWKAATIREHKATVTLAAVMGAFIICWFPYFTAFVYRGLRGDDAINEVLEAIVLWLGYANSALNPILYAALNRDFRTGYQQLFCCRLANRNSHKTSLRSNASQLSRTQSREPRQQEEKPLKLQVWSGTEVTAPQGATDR
# [5] = molecular target: Histamine H1 receptor (Homo sapiens) (UniProt P35367); assay: Intrinsic activity at human recombinant histamine H1 receptor expressed in Sf9 cells coexpressing RGS4 preincubated for 2 mins before [gamma32P]GTP addition measured after 20 mins by steady-state GTPase activity assay relative to histamine
# Histamine H2 receptor [6] = molecular target: T3, Histamine H2 receptor; assay: Antagonist activity at human recombinant histamine H2 receptor-Gsalphas fusion protein expressed in Sf9 cells assessed as inhibition of histamine-induced […] hydrolysis preincubated for 2 mins before [gamma32P]GTP addition measured after 20 mins by steady-state GTPase activity assay; format: functional
# Histamine H3 receptor [7] = molecular target: T2, Histamine H3 receptor; assay: Intrinsic activity at human recombinant histamine H3 receptor expressed in Sf9 cells coexpressing Galphai2,Gbeta1gamma2 and RGS4 preincubated for 2 mins before [gamma32P]GTP addition measured after 20 mins by steady-state GTPase activity assay relative to histamine
# Histamine H4 receptor [8] = molecular target: T1, Histamine H4 receptor; assay: Agonist activity at human recombinant histamine H4 receptor-RGS19 fusion protein expressed in Sf9 cells coexpressing Galphai2,Gbeta1gamma2 assessed as [35S]GTPgammaS binding after 90 mins by liquid scintillation counting; format: functional
# Histamine H2 receptor [9] = molecular target: T3, Histamine H2 receptor; assay: Antagonist activity at human recombinant histamine H2 receptor-Gsalphas fusion protein expressed in Sf9 cells assessed as inhibition of histamine-induced [35S]GTPgammaS binding after 90 mins by liquid scintillation counting; format: functional
# Histamine H2 receptor [10] = molecular target: T3, Histamine H2 receptor; assay: Intrinsic activity at human recombinant histamine H2 receptor-Gsalphas fusion protein expressed in Sf9 cells assessed as [35S]GTPgammaS binding at 10 uM after 90 mins by liquid scintillation counting relative to histamine; format: functional
# Histamine H3 receptor [11] = molecular target: T2, Histamine H3 receptor; assay: Agonist activity at human recombinant histamine H3 receptor expressed in Sf9 cells coexpressing Galphai2,Gbeta1gamma2 and RGS4 assessed as [35S]GTPgammaS binding after 90 mins by liquid scintillation counting; format: functional
# [12] = molecular target: Histamine H1 receptor (Homo sapiens) (UniProt P35367); conditions: Sf9
# Histamine H4 receptor [13] = molecular target: T1, Histamine H4 receptor; assay: Intrinsic activity at human recombinant histamine H4 receptor-RGS19 fusion protein expressed in Sf9 cells coexpressing Galphai2,Gbeta1gamma2 assessed as [35S]GTPgammaS binding at 10 uM after 90 mins by liquid scintillation counting relative to histamine; format: functional
# Histamine H4 receptor [14] = molecular target: T1, Histamine H4 receptor; assay: Antagonist activity at human recombinant histamine H4 receptor-RGS19 fusion protein expressed in Sf9 cells coexpressing Galphai2,Gbeta1gamma2 assessed as inhibition of histamine-induced [35S]GTPgammaS binding after 90 mins by liquid scintillation counting; format: functional
# Histamine H3 receptor [15] = molecular target: T2, Histamine H3 receptor; assay: Antagonist activity at human recombinant histamine H3 receptor expressed in Sf9 cells coexpressing Galphai2,Gbeta1gamma2 and RGS4 assessed as inhibition of histamine-induced [35S]GTPgammaS binding after 90 mins by liquid scintillation counting; format: functional
# Histamine H3 receptor [16] = molecular target: T2, Histamine H3 receptor; assay: Intrinsic activity at human recombinant histamine H3 receptor expressed in Sf9 cells coexpressing Galphai2,Gbeta1gamma2 and RGS4 assessed as [35S]GTPgammaS binding at 10 uM after 90 mins by liquid scintillation counting relative to histamine; format: functional
# Histamine H4 receptor [17] = molecular target: T1, Histamine H4 receptor; assay: Intrinsic activity at human recombinant histamine H4 receptor-RGS19 fusion protein expressed in Sf9 cells coexpressing Galphai2,Gbeta1gamma2 preincubated for 2 mins before [gamma32P]GTP addition measured after 20 mins by steady-state GTPase activity assay relative to histamine
# [18] = molecular target: Histamine H2 receptor (Cavia porcellus) (UniProt P47747); assay: Agonist activity at guinea pig histamine H2 receptor assessed as potentiation of histamine-induced response after 30 mins relative to histamine
# Chain of Histamine H2 receptor (Cavia porcellus) (P47747 whole entry): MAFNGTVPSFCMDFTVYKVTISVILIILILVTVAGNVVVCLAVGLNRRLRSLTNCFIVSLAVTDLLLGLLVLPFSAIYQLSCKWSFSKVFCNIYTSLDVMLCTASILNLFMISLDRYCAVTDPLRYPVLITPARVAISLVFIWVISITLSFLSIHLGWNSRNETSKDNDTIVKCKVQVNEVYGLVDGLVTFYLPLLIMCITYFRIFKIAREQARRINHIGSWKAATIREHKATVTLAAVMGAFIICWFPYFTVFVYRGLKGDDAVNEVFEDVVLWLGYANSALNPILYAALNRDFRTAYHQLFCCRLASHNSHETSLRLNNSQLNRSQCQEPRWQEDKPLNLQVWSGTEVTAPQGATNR
Structure (SMILES),pKb (Histamine H4 receptor [1]),pKb (Histamine H3 receptor [2]),pKb [3],Intrinsic activity (Histamine H2 receptor [4]),Intrinsic activity [5],pKb (Histamine H2 receptor [6]),Intrinsic activity (Histamine H3 receptor [7]),pEC50 (Histamine H4 receptor [8]),pKb (Histamine H2 receptor [9]),Intrinsic activity (Histamine H2 receptor [10]),Intrinsic activity (Histamine H4 receptor [13]),pKb (Histamine H3 receptor [15]),Intrinsic activity (Histamine H3 receptor [16]),also measured
N/C(=N\C(=O)CC(c1ccccc1)c1ccccc1)NCCCc1cccnc1,< 5,< 5,5.04,-0.16,0.06,6.14,-0.14,,,,,,,
N#C/N=C(\NCCCCc1nc(N)n[nH]1)NCCSc1ccccc1,,,< 5,,0.01,,,inactive,< 5,0.03,,,,pEC50 (Histamine H3 receptor [11]): inactive
CC(CC(=O)/N=C(\N)NCCCc1ccccc1)c1ccccc1 (centres undefined),< 5,< 5,5.05,-0.1,-0.02,5.89,-0.19,,,,,,,
N#C/N=C(\NCCCNc1nc(N)n[nH]1)NCCSc1ccccc1,,,,,,,,inactive,< 5,-0.01,,,,pEC50 [12]: inactive; pEC50 (Histamine H3 receptor [11]): inactive
CN/C(=N/C#N)NCCCNc1nc(N)n[nH]1,,,,,,,,inactive,< 5,-0.03,,,,pEC50 [12]: inactive; pEC50 (Histamine H3 receptor [11]): inactive
N#C/N=C(/NCCCSc1nc(N)n[nH]1)NCCSc1ccccc1,,,,,,,,inactive,< 5,-0.05,,,,pEC50 [12]: inactive; pEC50 (Histamine H3 receptor [11]): inactive
CN/C(=N/C#N)NCCCCc1c[nH]c(C)n1,,,< 5,,0.01,,,,< 5,0.04,-0.23,< 5,-0.13,pKb (Histamine H4 receptor [14]): < 5
N#C/N=C(/NCCCCNc1nc(N)n[nH]1)NCCSc1ccccc1,,,,,,,,inactive,< 5,-0.09,,,,pEC50 [12]: inactive; pEC50 (Histamine H3 receptor [11]): inactive
N/C(=N\C(=O)CC(c1ccccc1)c1ccccc1)NCCCc1ncc[nH]1,5.85,5.47,5.07,-0.04,0.04,6.13,-0.33,,,,,,,Intrinsic activity (Histamine H4 receptor [17]): -0.08
CC(CC(=O)/N=C(\N)NCCCc1ccc(CN(C)C)o1)c1cccs1 (centres undefined),< 5,5.77,,-0.12,,6.51,-0.73,,,,,,,Intrinsic activity (Histamine H4 receptor [17]): -0.14
CN(C)Cc1ccc(CCCN/C(N)=N/C(=O)CC(c2ccccc2)c2nccs2)o1 (centres undefined),< 5,5.51,,-0.13,,6.13,-0.62,,,,,,,
Cc1nc(CCCN/C(=N\C#N)NCCSc2ccccc2)c[nH]1,,,< 5.3,,0.03,,,,< 5,-0.05,0.4,< 5,-1.11,EC50 (Histamine H4 receptor [8]): 468 nM
N/C(=N\C(=O)CC(c1ccccc1)c1ccccc1)NCCCc1ccncc1,< 5,5.06,< 5,-0.12,0.08,6.14,-0.08,,,,,,,
N#C/N=C(/NCCCNc1nccc(N)n1)NCCSc1ccccc1,,,< 5,,0.01,,,,< 5,-0.11,-0.09,5.14,-0.71,pKb (Histamine H4 receptor [14]): < 5
CN/C(=N/C#N)NCCCc1c[nH]c(C)n1,,,inactive,,inactive,,,,< 5,-0.02,0.74,< 5,-0.52,EC50 (Histamine H4 receptor [8]): 550 nM; pEC50 [12]: inactive
N#C/N=C(\NCCCCc1cnn[nH]1)NCCSc1ccccc1,,,< 5,,-0.02,,,inactive,< 5,-0.04,,,,pEC50 (Histamine H3 receptor [11]): inactive
CN/C(=N/C#N)NCCCCCn1ccnc1C,,,< 5,,-0.01,,,inactive,< 5,-0.07,0.06,< 5,-0.26,

Structure (SMILES),pKb (Histamine H4 receptor [1]),pKb (Histamine H3 receptor [2]),pKb [3],Intrinsic activity (Histamine H2 receptor [4]),Intrinsic activity [5],pKb (Histamine H2 receptor [6]),Intrinsic activity (Histamine H3 receptor [7]),pEC50 (Histamine H4 receptor [8]),pKb (Histamine H2 receptor [9]),Intrinsic activity (Histamine H2 receptor [10]),Intrinsic activity (Histamine H4 receptor [13]),pKb (Histamine H3 receptor [15]),Intrinsic activity (Histamine H3 receptor [16]),also measured
CN(C)Cc1ccc(CCCN/C(N)=N/C(=O)CC(c2ccccc2)c2ccccc2)o1,< 5,5.89,5.11,-0.16,-0.02,7.03,-0.65,,,,,,,Intrinsic activity (Histamine H4 receptor [17]): -0.16
Cc1nccn1CCCCCN/C(=N\C#N)NCCSc1ccccc1,,,< 5,,0.03,,,,< 5,-0.08,-0.05,< 5,-0.42,pKb (Histamine H4 receptor [14]): < 5
N#C/N=C(/NCCCNc1ccccn1)NCCSc1ccccc1,,,< 5,,0.02,,,,< 5,-0.12,-0.1,< 5,-0.21,pKb (Histamine H4 receptor [14]): < 5
CN/C(=N/C#N)NCCCCc1nc[nH]c1C,,,< 5,,-0.03,,,,< 5,0.04,0.6,,0.23,EC50 (Histamine H4 receptor [8]): 3630 nM; EC50 (Histamine H3 receptor [11]): 1070 nM
N#C/N=C(/NCCCCc1c[nH]cn1)NCCSc1ccccc1,,,,,7%,,,,,,0.88,6.14,-0.52,EC50 (Histamine H4 receptor [8]): 37.2 nM
N/C(=N\C(=O)CC(c1ccccc1)c1ccccc1)NCCCc1ccccn1,< 5,5.35,5.41,0,0.1,5.68,-0.44,,,,,,,
CC(CC(=O)/N=C(\N)NCCCc1c[nH]cn1)c1ccccc1 (centres undefined),,,,0.87,,,0.24,,,,,,,Efficacy [18]: 99%; Intrinsic activity (Histamine H4 receptor [17]): 0.84
CN/C(=N/C#N)NCCCCc1nc(N)n[nH]1,,,,,,,,inactive,< 5,0.31,,,,pEC50 [12]: inactive; pEC50 (Histamine H3 receptor [11]): inactive
N/C(=N\C(=O)CC(c1ccccc1)c1nccs1)NCCCc1ncc[nH]1 (centres undefined),< 5,5.28,,0,,5.19,-0.46,,,,,,,
N/C(=N\C(=O)CC(c1ccccc1)c1ccccc1)NCCCc1ccccc1,< 5,5.1,5.26,-0.12,-0.01,5.89,-0.24,,,,,,,
CN/C(=N\CCSCc1nc[nH]c1C)NC#N,,,,,,,,,5.77,,,,,pKb (Histamine H4 receptor [14]): < 5
S=C(NC1CCCCC1)N1CCC(c2cnc[nH]2)CC1,,,,,,,,,,,,,,Intrinsic activity (Histamine H4 receptor [17]): -0.95
N#C/N=C(\NCCNc1ccnc(N)n1)NCCSc1ccccc1,,,< 5,,-0.02,,,,< 5,-0.07,-0.83,5.54,-1.03,pKb (Histamine H4 receptor [14]): 5.43
N#C/N=C(/NCCNc1nccc(N)n1)NCCSc1ccccc1,,,< 5,,0.01,,,inactive,< 5,-0.08,,< 5,-1.43,
CN/C(=N\C#N)NCCCSc1nc(N)n[nH]1,,,,,,,,inactive,< 5,-0.02,,,,pEC50 [12]: inactive; pEC50 (Histamine H3 receptor [11]): inactive
N#C/N=C(/NCCCCNc1ccccn1)NCCSc1ccccc1,,,< 5,,-0.01,,,,< 5,-0.13,-0.34,< 5,-0.36,pKb (Histamine H4 receptor [14]): < 5
